In patent publication US20070117182A1, “Nucleic acids conferring transcriptional responsiveness on the RANKL gene promoter and uses thereof” (Wisconsin Alumni Research Foundation, priority 2005, published 2007):

Tests used:
OPN promoter = experiment: ChIP of VDR/RXR at OPN promoter in ST2 cells; format: cell-based, mouse; conditions: 10^-7 M, 6 hours
Procedure: FIG. 3. ChIP/chip analysis of the RANKL gene locus. A) ChIP: ST2 cells were treated with either vehicle or 1,25(OH)2D3 (10^−7 M) and after 6 hours subjected to ChIP using antibodies to VDR, RXR and IgG. Precipitated DNA was analyzed for the presence of either the Cyp24 or the OPN promoter. B) Arrangement of the mouse RANKL gene locus and position of flanking genes. RANKL gene is transcribed on the reverse strand (right to left). C) DNA chip: Precipitated DNA was linearly amplified and then subjected to chip analysis using tiled oligonucleotide arrays containing 50-mers spanning the RANKL gene locus as described in the text. Hybridization data derived from the arrays are indicated in log2 scale across the locus with nucleotide positions on chromosome 14 indicated on the X axis. The first set of two arrays provide linear data comparing IgG (±1,25(OH)2D3) and VDR (±1,25(OH)2D3) over the RANKL upstream regions. The second set of three arrays provides an expanded view of hybridization data comparing VDR (±1,25(OH)2D3), VDR (+1,25(OH)2D3 vs input DNA) and RXR (+1,25(OH)2D3 vs input DNA). VDR/RXR binding regions D1-D5 are tracked by the shading.
As a first step, the inventors treated ST2 cells with either vehicle or 1,25(OH)2D3 for 6 hours, fixed the cells with formalin, and then subjected the cell lysates to ChIP analysis using antibodies to VDR, RXR, and an IgG control. […]

[1] = test system: D5 region of the RANKL gene (RL-CCL); experiment: pTK-RL(D5) luciferase reporter in ST2 cells; format: cell-based, mouse; conditions: 24 hours, agent alone
Procedure: (§1) FIG. 6. Transcriptional activity of the D5 regions of the RANKL gene in the context of the TK promoter. Sequence surrounding the D5 region (1072 bp) was cloned into the pTK-luciferase vector and termed pTK-RL(D5). […] Cells were harvested after 24 hours and luciferase activity assessed. B) ST2 cells were transfected as in A above but without the VDR expression vector and evaluated as in A. C) COS-7 cells were transfected and evaluated as in A above. Luciferase was normalized using beta-gal activity. Data represent the mean of triplicate determinations (SEM). The pTK-luc control vector was unresponsive to any of the inducers (see FIG. 9). *, p<0.05 vs no treatment control.
FIG. 11. […] A) Coordinates of the RL-D5 and the RL-D5b regions in the mouse RANKL upstream region. ST2 cells were transfected with either B) pTK-luc or pTK-mRL-D5 or C) pTK-luc and pTK-mRL-D5b and then treated with the indicated inducers. Cells were harvested after 24 hours and evaluated for luciferase activity. Luciferase was normalized using β-gal activity. Data represent the mean of triplicate determinations (SEM). *, p<0.05 vs no treatment control. **, p<0.05 vs no treatment and 1,25(OH)2D3 treated controls.
The activity of an enhancer must be evaluated in the context of its local environment, preferentially in the context of both other enhancers and its native promoter. In the case of the RANKL gene, however, this is clearly not possible due to the numbers and the distant locations of the potential regulatory regions. To tackle this problem, the inventors isolated approximately 800 to 1100 bp fragments of each region (D1 to D5) as identified through the ChIP/Chip analysis, cloned each into a luciferase expression vector under the control of a viral thymidine kinase (TK) minimal promoter, and explored the 1,25(OH)2D3- and GC-inducible activity of each following transfection into ST2 cells. […] Nevertheless, positive results provide added support for the potential regulatory capabilities of an individual DNA fragment even when examined in isolation. […] This induction was magnified by the addition of a VDR expression vector (FIG. 6a), but was also evident in the absence of such addition (FIG. 6b). […] To ensure that the viral TK promoter background was not contributing to our evaluation, the inventors cloned the mouse RANKL promoter (−100 to +65) into pGL3, inserted RL D5 and evaluated its activity in ST2 cells as well.
Based upon the above data, the inventors explored the possibility that similar to 1,25(OH)2D3, forskolin, PGE2 and OSM might be capable of activating transcription via the D5 fragment of the RANKL gene. […] Cells were harvested 24 hours later and evaluated for luciferase activity as in the previous experiments. […]

[2] = test system: D5 fragment in COS7 cells; experiment: pRL-D5/TK-luc reporter in COS7 cells with VDR expression vector; format: cell-based, mouse
Procedure: as §1
The activity of an enhancer must be evaluated in the context of its local environment, preferentially in the context of both other enhancers and its native promoter. In the case of the RANKL gene, however, this is clearly not possible due to the numbers and the distant locations of the potential regulatory regions. […] To ensure that the viral TK promoter background was not contributing to our evaluation, the inventors cloned the mouse RANKL promoter (−100 to +65) into pGL3, inserted RL D5 and evaluated its activity in ST2 cells as well.

minimal RANKL promoter = experiment: Mouse RANKL minimal promoter (-100 to +65) in pGL3, ST2 cells; format: cell-based; conditions: pGL3, without D5 insert
Source text: FIG. 9. The mouse RANKL D5 region is active in the context of the mouse RANKL gene minimal promoter. Mouse RL D5 was inserted upstream of a mouse RANKL gene promoter fragment (−100 to +65) in pGL3 and its inducible activity assessed in ST2 cells. […] Data are the average of triplicate determinations, SEM.
The activity of an enhancer must be evaluated in the context of its local environment, preferentially in the context of both other enhancers and its native promoter. In the case of the RANKL gene, however, this is clearly not possible due to the numbers and the distant locations of the potential regulatory regions. To tackle this problem, the inventors isolated approximately 800 to 1100 bp fragments of each region (D1 to D5) as identified through the ChIP/Chip analysis, cloned each into a luciferase expression vector under the control of a viral thymidine kinase (TK) minimal promoter, and explored the 1,25(OH)2D3- and GC-inducible activity of each following transfection into ST2 cells. […] Nevertheless, positive results provide added support for the potential regulatory capabilities of an individual DNA fragment even when examined in isolation. […] To ensure that the viral TK promoter background was not contributing to our evaluation, the inventors cloned the mouse RANKL promoter (−100 to +65) into pGL3, inserted RL D5 and evaluated its activity in ST2 cells as well.

[3] = test system: D5 region of the human RANKL gene; experiment: ChIP analysis of the D5 region of the human RANKL gene in MG-63 cells; format: cell-based
Procedure: FIG. 14. […] Cells were treated with the indicated inducers for the periods identified and isolated RNA subjected to PCR analysis for Cyp24, RANKL and b-actin. B) 1,25(OH)2D3 induces VDR binding to the conserved D5 region of the human RANKL gene in MG-63 cells. […] Two different primer sets to the human D5 region were used to assess VDR binding. VDR binding was also observed at D3-D1 but not in intervening regions or at the TSS. C) The human D5 region is transcriptionally active in MG-63 cells. […] Luciferase activity was analysed 24 hours later. […] Data are the average of triplicate determinations, SEM.
Input represents DNA abundance prior to precipitation with either antibodies to the VDR or non specific IgG.

C=C1/C(=C\C=C2/CCC[C@]3(C)[C@@H]([C@H](C)CCCC(C)(C)O)CC[C@@H]23)C[C@@H](O)C[C@@H]1O [1,25(OH)2D3]
abundance of OPN promoter DNA precipitated with VDR and RXR antibodies (OPN promoter): clearly increased the abundance of DNA
luciferase activity via D5 (RL-CCL), TK promoter [1]: typical and rather striking dose response
stimulation via the D5 fragment in COS7 cells [2]: failed to stimulate
response of minimal RANKL promoter (minimal RANKL promoter): unresponsive
RXR binding to the D5 region of the human RANKL gene [3]: also induced to bind
VDR binding to the D5 region of the human RANKL gene [3]: induced
